Source: patent publication US11077102B2, “Multidose package, course and method of treatment for delivering predetermined multiple doses of a pharmaceutical” (BAUSCH HEALTH IRELAND LIMITED, priority 2009, dated 2021)
Values belong to the compound of their own block, whether it stands above or below them.

Test: Stability of formulation in multi-dose container (Rexam 2.05 mL Sof' Airless)
Type: physicochemical
Procedure: Once a candidate package is identified, stability trials are carried out to determine compatibility of the formulation with the container components. Testing is carried out on the formulation packed in the selected containers and stored under a number of controlled conditions (e.g., 40° C./75% RH and 25° C./60% RH) for a specified time up to the expiry date of the product. Tests will include determination of imiquimod content, preservative content, impurity content, appearance, microscopic examination, pH levels and visual container assessment against set standards.
Two batches of Aldara cream were dispensed into Rexam™ 2.05 mL Sof' Airless™ containers. The batches had been previously tested to determine the amount of preservatives (methyl hydroxybenzoate (MHB), propyl hydroxybenzoate (PHB) benzyl alcohol) and imiquimod, at the beginning of the study in Table 4 below.
The batches were stored under various conditions and then analyzed at 2 months, 4 months, 5.5 months and 13 months as shown in Tables 5 to 7 below. The presence of the contaminant 4-OH-R837 was also tested. NOTE: 4-OH-R837 is an Imiquimod impurity.

Impurity level in Aldara cream in multi-dose container (up to and including 13 months): below detection limits
Structure (SMILES): CC(C)Cn1cnc2c(=O)[nH]c3ccccc3c21 [4 Hydroxy Imipquimod, 4-Hydroxyimiquimod]

Benzyl alcohol levels in Aldara cream in multi-dose container (40 C/75% RH, up to 13 months, lower specification limit 1.00% w/w): just below the lower specification limit
Structure (SMILES): OCc1ccccc1 [Benzyl alcohol, benzyl alcohol]

Structure (SMILES): COC(=O)c1ccc(O)cc1 [MHB, methyl hydroxybenzoate]
Stability in Aldara cream in multi-dose container (up to and including 13 months, both 25 C/60% RH and 40 C/75% RH): good stability
